Source: article PMC13229503, “Dissecting mechanisms of ligand binding and conformational changes in the glutamine-binding protein” (eLife, 2026)
Like-named read-outs stand apart in the source and are kept apart here.

Assays:
GlnBP [1] = details: cited from earlier work
GlnBP [2] = system: GlnBP; parameters: method as in Berntsson et al., 2010; details: numerical fits of stopped-flow relaxation curves, Gln:GlnBP 1:1 and 2:1; ref Berntsson et al., 2010; cited from earlier work
GlnBP(111 C-192C) [3] = biological target: T1, GlnBP(111 C-192C) (Escherichia coli, UniProt P0AEQ3, G214C/V133C); assay: Diffusion-based smFRET (µsALEX) ligand titration of doubly-labeled GlnBP(111C-192C); type: binding; details: millimolar ligand, GlnBP(111C-192C) and GlnBP(59C-130C), AF555/AF647
T1 construct: made in house; host or cells: E. coli BL21-pLysS
Protocol: The refolded GlnBP(111 C-192C) and GlnBP(59 C-130C) variants were labeled with commercial maleimide derivatives of AF555/AF647 or ATTO 532/ATTO 643 ([Gebhardt et al., 2021]), and then purified by SEC. […] First, the His-tagged protein was incubated in 10 mM DTT in PBS buffer for 30 min to reduce all oxidized cysteine residues. Subsequently, the protein was diluted 10 times with PBS buffer and immobilized on a Nickel Sepharose 6 Fast Flow resin (GE Healthcare). The resin was washed extensively with milliQ water followed by PBS buffer pH 7.4. To remove the excess of DTT, the resin was washed with PBS buffer. […]
Single-molecule μsALEX experiments were carried out at room temperature on a custom-built confocal microscope. […] In general, the 532 and 640 nm diode lasers operated at 60 and 25 μW, respectively (measured at the back aperture of the objective), unless stated otherwise. Fluorescence light was collected by the same objective, focused onto a 50 μm pinhole and separated into two spectral channels (donor and acceptor fluorescence) by a dichroic beamsplitter (H643 LPXR, AHF, Germany). Fluorescence emission was collected by two avalanche photodiodes (SPCM-AQRH-64, Excelitas) after additional filtering (donor channel: BrightLine HC 582/75 and acceptor channel: Longpass 647 LP Edge Basic, both from Semrock, USA). […]

GlnBP(111 C-192C) [4] = biological target: T1, GlnBP(111 C-192C); assay: ITC of ligand binding to refolded, unlabeled GlnBP(111C-192C)
Protocol: (§1) The ITC measurements were performed in a MicroCal PEAQ-ITC isothermal titration calorimeter (Malvern Instruments). The prediction ITC software ‘MicroCal PEAQ-ITC Control’ was employed for designing and conducting the experiments. Once the Kd value and the binding stoichiometry (N) were assigned as predefined values, the concentration of both the protein and the titrant (ligand) stock solutions could be calculated by the ‘design-experiment’ function on the software to get an optimal sigmoidal one-site binding curve. GlnBP concentration was assessed using the Nanophotometer (N60 Touch, Implen GmbH) with at least three reading repeats to get accurate determinations of concentration values. For all ITC measurements, the temperature was set at 25 °C with stirring speed at 750 rev/min. The GlnBPs solution (10 μM in PBS buffer pH 7.4, 300 μL) was manually loaded into the sample cell. The titrant (L-glutamine, 100 μM in PBS buffer, pH 7.4) was automatically loaded into the titration syringe and injected in the sample cell with a titration speed of 2 μL every 150 s and a total of 19 injections. As a control experiment, L-glutamine was titrated into the sample cell containing PBS buffer without GlnBPs. All the titration data were analyzed using the MicroCal PEAQ-ITC Analysis Software.

GlnBP(59 C-130C) = biological target: T2, GlnBP(59 C-130C) (Escherichia coli, UniProt P0AEQ3, T152C/T81C); assay: ITC of ligand binding to refolded, unlabeled GlnBP(59C-130C)
T2 construct: made in house; host or cells: E. coli BL21-pLysS
Protocol: as §1

T1 sequence (P0AEQ3 23-248 V133C/G214C): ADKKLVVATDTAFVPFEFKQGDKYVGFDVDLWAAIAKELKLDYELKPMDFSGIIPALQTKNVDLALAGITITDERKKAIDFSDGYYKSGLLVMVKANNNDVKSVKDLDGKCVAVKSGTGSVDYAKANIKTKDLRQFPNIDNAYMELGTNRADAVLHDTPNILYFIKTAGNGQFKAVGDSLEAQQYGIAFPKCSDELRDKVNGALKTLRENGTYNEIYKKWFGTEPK
T2 sequence (P0AEQ3 23-248 T81C/T152C): as the sequence (P0AEQ3 23-248 V133C/G214C) above, with T59C, C111V, T130C, C192G counted along it

## NC(=O)CC[C@H](N)C(=O)O [L-glutamine]
GlnBP [1]; L-glutamine, ref Pistolesi and Tjandra, 2012, Su et al., 2007
  affinity: sub-micromolar affinity
GlnBP [2]
  effective on-rate constant: about 10^8 M^–1s^–1

## N=C(N)NCCC[C@H](N)C(=O)O [L-Arginine]
GlnBP [1]; arginine, ref Chen et al., 2020
  affinity: millimolar affinity
GlnBP(111 C-192C) [3]
  ligand-induced FRET shift (conformational change): hardly any FRET shifts
GlnBP(111 C-192C) [4]
  Kd: 421 ± 292 µM
GlnBP(59 C-130C)
  Kd: 737 ± 133 µM
